Laboratory results taken from patent US20100022620A1, “EPITOPE REDUCTION THERAPY” (priority 2006, published 2010).

Assays:
RAW cells [1] = test: TLC immuno-overlay of RAW cell ganglioside extract with GBS patient serum (anti-GM1 binding); format: cell-based; details: for GBS patient sera antibody binding to GM1: RAW cells grown in 0 to 1000 μM drug, patient '8' serum (FIG. 13)
Method: GSL was extracted from RAW cells incubated in a range of NB-DNJ and NB-DGJ concentrations from 0 to 1 mM and separated by TLC. Extract was run parallel to purified GM1 on duplicate TLC plates. Immuno-overlay was carried out using patient ‘8’ and control ‘4’ sera.
The procedure was then repeated with standardisation of the amount of material loaded onto the gel (FIG. 14). This was calculated using the bicinchoninic acid protein quantification method (Chan et al., 1993). […] No binding was observed when the overlay was conducted with control serum, indicating specificity of this effect to GBS auto-antibody.

RAW cells [2] = test: Orcinol-stained TLC of GM1 in RAW cell extract; format: cell-based; details: for IC50: GM1 in RAW cells, stated only as comparable to 50 μM, read-out: apparent IC50 estimated from orcinol stained RAW TLC; for levels of GM1 in RAW cells: orcinol staining, 0 to 1000 μM drug (FIG. 15)
Source text: A third TLC plate (FIG. 15) with standardised amounts of sample was run in an identical manner to those in FIG. 14 but stained with orcinol.

PC12 cells [3] = test: HPLC analysis of PC12 gangliosides; format: cell-based; details: for ganglioside depletion in PC12 cells: HPLC (FIG. 17)
Method: In the absence of detectable binding by TLC immuno-overlay, a new technique was necessary to analyse the identity and relative abundance of gangliosides present on PC12 cells. To this end, HPLC was carried out on ganglioside extracted from PC12 cells grown in a range of NB-DGJ and NB-DNJ concentrations from 0-1 mM.

Neuroblastoma NB1 cells = test: Fluorescence microscopy of sera binding to Neuroblastoma NB1 cells; format: cell-based; details: NB1 cells treated with various concentrations; some GBS serum samples such as patient 7
Source text: This non-specific staining hinders interpretation of results when using whole sera. Cell staining indicated the necessity for a technique which provides isolated antigen, thereby reducing the potential of non-specific staining.

[4] = cited from earlier work; for CNS penetration: mouse, in vivo; for neurological side effects: treatment of adult mice
[5] = tested on: total ganglioside and GM1 content; details: cerebrum-brainstem; cited from earlier work
GSL biosynthesis = details: compared with NB-DNJ; cited from earlier work
[6] = mouse models of GSL storage diseases; cited from earlier work
PC12 cells [7] = test: Immunocytology: anti-GT1b antibody binding to PC12 cells by flow cytometry; format: cell-based; details: for reduction in anti-ganglioside antibody binding: 3 days of exposure, anti-GT1b mAb
Method: (§1) PC12 cells were grown under standard undifferentiated conditions with and without a range of NB-DNJ concentrations (1, 5, 10, 50, 100 and 500 μM). Cells were grown in flasks for immunocytology and analytical studies on ganglioside levels and also in 96-well tissue culture plates for antibody mediated lysis studies. Time points examined were day 0, 1, 2 and 3, and 2 and 3 days post-compound wash out.
PC12 cells were grown in DMEM containing 7.5% FCS and 7.5% horse serum. The medium was supplemented with 0, 1, 5, 10, 50, 100 or 500 μM NB-DNJ and the cells cultured for 3 days. The media was then replaced with DMEM without NB-DNJ and the cells cultured for a further 3 days. At days 0, 1, 2, 3 and days 2 and 3 post NB-DNJ treatment, cells were harvested and ganglioside levels assessed by analysing anti-ganglioside antibody binding using flow cytometry. Briefly, 1×10^5 cells were stained with 10 μg/ml of a murine anti-GT1b mAb for 1 hour at room temperature. Binding was then detected by a FITC labelled antibody with specificity for mouse IgG. Binding is expressed in FIGS. 2 and 3 as the mean fluorescence of triplicate experiments. To allow any reduction in ganglioside levels to be clearly visualised at each time point, the mean fluorescence is shown as a percentage of that at day 0. Error bars indicate sem.

PC12 cells [8] = test: Anti-ganglioside antibody / complement-mediated lysis of PC12 cells (LDH release); format: cell-based
Method: as §1
The consequences of reduced anti-ganglioside antibody binding treated cells were evaluated by measuring antibody-mediated cytotoxicity (FIGS. 4 and 5). Thus, cells from each day and NB-DNJ concentration were also assayed for anti-ganglioside antibody-mediated cytotoxicity. Lysis studies were conducted using anti-ganglioside antibodies in conjunction with fresh human serum as a source of complement. Cell viability was quantitated by colourimetric assay measuring LDH release upon cell lysis.
After coating onto 96 well tissue culture plates (5×10^3 cells/well), the cells were incubated with anti-GT1b antibody at 10 μg/ml for 1 hour at room temperature. Then, 10% human serum was added as a source of complement for a further hour at 37° C. Complement-mediated cell lysis was measured using a Cytotox 96 cytotoxic assay kit (Promega), following the instructions supplied. LDH released upon cell lysis was measured by a colourimetric assay; a tetrazolium salt is converted into a red formazan product. […]

PC12 cells [9] = test: HPLC analysis of GSL levels in NB-DNJ treated PC12 cells; format: cell-based; details: day 3, PC12 cells, preliminary analysis
Method: as §1
HPLC analysis of the treated and untreated cells was performed to determine the extent of GSL depletion that results from NB-DNJ treatment.

GSL levels = details: mice, cited from earlier work
sialyltransferase = details: cited from earlier work
[10] = target: T1, human α-1,3-fucosyltransferase V (Homo sapiens, UniProt Q11128); details: in the presence of guanosine diphosphate (GDP); cited from earlier work
T1 sequence (Q11128 1-374): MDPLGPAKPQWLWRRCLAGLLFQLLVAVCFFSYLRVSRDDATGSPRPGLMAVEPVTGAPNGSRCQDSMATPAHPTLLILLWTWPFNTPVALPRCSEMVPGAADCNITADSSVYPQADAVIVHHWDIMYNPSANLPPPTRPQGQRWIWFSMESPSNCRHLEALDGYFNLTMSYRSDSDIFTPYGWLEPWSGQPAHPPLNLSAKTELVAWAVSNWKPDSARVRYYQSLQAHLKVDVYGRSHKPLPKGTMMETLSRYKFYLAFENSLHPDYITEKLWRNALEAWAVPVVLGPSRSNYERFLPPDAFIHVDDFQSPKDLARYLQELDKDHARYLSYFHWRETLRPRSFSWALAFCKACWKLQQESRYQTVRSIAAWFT

rat recombinant α-2,3-ST = details: cited from earlier work
rat recombinant α-2,6-ST = target: T2, rat recombinant α-2,6-ST (Rattus norvegicus, UniProt P13721); details: cited from earlier work
T2 sequence (P13721 1-403): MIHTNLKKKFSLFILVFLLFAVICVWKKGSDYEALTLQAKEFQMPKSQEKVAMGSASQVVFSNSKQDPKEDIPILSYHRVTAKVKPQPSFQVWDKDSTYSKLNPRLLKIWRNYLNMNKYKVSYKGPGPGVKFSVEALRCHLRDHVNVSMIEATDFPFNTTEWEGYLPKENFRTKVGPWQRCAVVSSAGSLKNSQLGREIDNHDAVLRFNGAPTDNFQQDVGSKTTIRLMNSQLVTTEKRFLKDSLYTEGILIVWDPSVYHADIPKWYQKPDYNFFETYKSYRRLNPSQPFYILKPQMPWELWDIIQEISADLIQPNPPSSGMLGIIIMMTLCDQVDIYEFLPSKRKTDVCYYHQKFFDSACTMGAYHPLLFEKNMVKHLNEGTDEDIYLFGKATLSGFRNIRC

[11] = RAW cells, standardised amount of material (FIG. 14)

Compound: CCCCN1C[C@H](O)[C@@H](O)[C@@H](O)[C@H]1CO [NB-DGJ, N-butyldeoxygalactonojirimycin]
- GBS patient sera antibody binding to GM1 (RAW cells [1]): drug dependent decrease
- drug dependent decrease in antibody binding to GM1, comparison of the two drugs (RAW cells [1]; RAW cells, FIG. 13): slightly more efficient
- decrease of patient anti-GM1 antibody binding, comparison of the two drugs (RAW cells [1]; [11]): more pronounced
- patient anti-GM1 antibody binding as drug concentration was increased (RAW cells [1]; [11]): progressively lower levels
- IC50 (RAW cells [2]): ~50 µM
- levels of GM1 in RAW cells (RAW cells [2]): drug dependent decrease
- ganglioside depletion in PC12 cells (PC12 cells [3]; 50 μM): significant ganglioside depletion
- ganglioside depletion in PC12 cells (PC12 cells [3]; 1 mM): Further depletion
- inhibitor potency, comparison of the two drugs (PC12 cells [3]; PC12 cells, HPLC): more a potent inhibitor
- fluorescence of serum binding on drug-treated cells (Neuroblastoma NB1 cells): decrease in fluorescence
- CNS penetration [4]: penetrate the CNS
- neurological side effects [4]: not to cause neurological side effects
- total ganglioside and GM1 content [5]: marked reduction
- inhibition of GSL biosynthesis (GSL biosynthesis): comparably to NB-DNJ
- tolerability [6]: very well tolerated

Compound: CCCCN1C[C@H](O)[C@@H](O)[C@H](O)[C@H]1CO [NB-DNJ, N-butyldeoxynojirimycin]
- anti-ganglioside antibody binding (PC12 cells [7]; 50 μM and higher concentrations): significant time dependent reduction
- reduction in anti-ganglioside antibody binding (PC12 cells [7]; 100 μM): 70%
- reduction in anti-ganglioside antibody binding (PC12 cells [7]; 500 μM): 90%
- anti-ganglioside antibody binding after wash out of the compound (PC12 cells [7]; by day 3 post wash out): returning to the levels of untreated cells
- protection from complement mediated lysis (PC12 cells [8]; 100 uM): approximately 60%
- protection from complement mediated lysis (PC12 cells [8]; 500 uM): ~80%
- GSL levels (PC12 cells [9]): 10-20 % of control
- GBS patient sera antibody binding to GM1 (RAW cells [1]): drug dependent decrease
- patient anti-GM1 antibody binding as drug concentration was increased (RAW cells [1]; [11]): progressively lower levels
- IC50 (RAW cells [2]): ~50 µM
- levels of GM1 in RAW cells (RAW cells [2]): drug dependent decrease
- ganglioside depletion in PC12 cells (PC12 cells [3]; 50 μM): significant ganglioside depletion
- ganglioside depletion in PC12 cells (PC12 cells [3]; 1 mM): Further depletion
- fluorescence of serum binding on drug-treated cells (Neuroblastoma NB1 cells): decrease in fluorescence
- time at which effect on GSL levels stabilizes (GSL levels): 10 days
- GSL levels (GSL levels; within a day of treatment): measurable decrease
- CNS penetration [4]: penetrate the CNS
- neurological side effects [4]: not to cause neurological side effects

Compound: C[C@@H]1O[C@@H](O[C@H]2[C@H](O[C@H]3[C@H](O[C@H]4CC[C@@]5(C)[C@@H](CC[C@]6(C)[C@@H]5CC=C5[C@@H]7CC(C)(C)C[C@@H](O)[C@]7(C)CC[C@]56C)[C@@]4(C)CO)O[C@H](C(=O)O)[C@@H](O)[C@@H]3O)O[C@H](CO)[C@H](O)[C@@H]2O)[C@H](O)[C@H](O)[C@H]1O [Soyasaponin I]
- sialyltransferase inhibition (sialyltransferase): potent and specific

Compound: CCCO[C@H]1O[C@H](CO)[C@@H](O[C@@H]2O[C@H](CO)[C@H](O)[C@H](O)[C@H]2O)[C@H](OCCN2C(C)C(O)C(O)C(O)C2CO)[C@H]1NC(C)=O (stereo partly drawn) [propyl 2-acetamido-2-deoxy-4-O-(β-D-galactopyranosyl)-3-O-(2-(N-(β-L-homofaconojirimycinyl))ethyl)-α-D-glucopyranoside]
- inhibition of human α-1,3-fucosyltransferase V [10]: effective inhibitor

Compound: cytidin-5′-yl sialylethylphosphonate
- IC50 (rat recombinant α-2,3-ST): 47 µM
- IC50 (rat recombinant α-2,6-ST): 340 µM
